# Source: paper PMC10804683, “Identification of the pyridoxal 5′‐phosphate allosteric site in human pyridox(am)ine 5′‐phosphate oxidase” (Protein Science : A Publication of the Protein Society, 2024)
# Residue numbers refer to the chain shown, from its start.
# How the values were obtained:
# [1] = biological target: T1, human PNPO wild type (Homo sapiens, UniProt Q9NVS9); parameters: a main form corresponding to the entire protein; made in house; host or cells: E. coli BL21(DE3); method as in Barile et al., [2020]; settings: substrate-enzyme-PLP ternary complex, ref Barile et al., [2020]; cited from earlier work
# T1 sequence (Q9NVS9 1-261): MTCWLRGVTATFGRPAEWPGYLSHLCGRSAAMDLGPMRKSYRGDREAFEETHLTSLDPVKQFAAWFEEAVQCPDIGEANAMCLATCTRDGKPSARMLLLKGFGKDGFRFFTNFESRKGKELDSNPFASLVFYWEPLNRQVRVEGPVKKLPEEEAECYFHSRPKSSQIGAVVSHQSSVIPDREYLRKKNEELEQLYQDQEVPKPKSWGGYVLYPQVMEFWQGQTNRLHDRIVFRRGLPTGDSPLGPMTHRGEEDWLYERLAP
# [2] = biological target: T2, human PNPO F48A variant (Homo sapiens, UniProt Q9NVS9, F48A); assay: PLP inhibition kinetics of PNP oxidation, F48A; type: biochemical; parameters: a main form corresponding to the entire protein; made in house; host or cells: E. coli BL21(DE3); settings: F48A (behavior much less marked than wild type); Na-HEPES pH 7.6, 2 μM enzyme, PLP 0–16 μM
# T2 sequence (Q9NVS9 1-261 F48A): T1 sequence (Q9NVS9 1-261) with F48A
# Experimental: This is a general inhibition mechanism that takes into account the possibility of PLP binding to both the active and allosteric sites. PLP binding at the active site gives a complete, competitive inhibition, whereas PLP binding at the allosteric site yields a substrate‐enzyme‐PLP ternary complex that is still catalytically active, although k CAT is reduced by a coefficient whose value is around 0.15. A thorough inhibition kinetic characterization was carried out with the wild type, F48A, F48A/E50L/R258L, and F48A/E50L/H248N/R258L PNPO forms, so as to evaluate the effect of the variations on the allosteric properties of the enzyme. The initial velocity of PNP conversion into PLP was measured in Na‐HEPES buffer (in which PLP is allowed to accumulate) by varying substrate concentration at different, fixed exogenous PLP concentrations, using 2 μM enzyme. A series of saturation curves were obtained that were used to fit the Michaelis–Menten equation (Figure 5), acquiring apparent V MAX and K M values as a function of PLP concentration. […]
# FIGURE 5 Characterization of PLP inhibition. Upper panels: The initial velocity of the reaction was measured with 2 μM wild type (a), and the F48A (b), F48A/E50L/R258L (c), and F48A/E50L/H248N/R258L (d) PNPO variants, varying PNP concentration while keeping exogenous PLP fixed at different concentrations (0, 0.25, 0.5, 1, 2, 4, 8, and 16 μM). […]
smiles,measurement,setting,value
"Cc1ncc(COP(=O)(O)O)c(C=O)c1O [PLP, pyridoxal 5′‐phosphate]",coefficient by which kCAT is reduced with PLP bound at the allosteric site,[1],around 0.15
same,type of inhibition of PNP oxidation by PLP,[2],typical hyperbolic increase of 1/V MAX and the parabolic increase of K M/V MAX
